Each structure is given as a SMILES string.

This note sets out measurements from patent US8802720B2, “Acylamino-substituted fused cyclopentanecarboxylic acid derivatives and their use as pharmaceuticals” (SANOFI, priority 2008, dated 2014).

The target of the assay is human Edg-2 receptor (LPA1 receptor) (Homo sapiens, UniProt Q92633). Kind of assay: Edg-2 receptor inhibition by FLIPR calcium fluorescence measurement (LPA-mediated calcium liberation). Format: cell-based. The settings on record: CHO cells stably overexpressing human Edg-2 receptor; LPA 18:1 100 nM; fluo-4 fluorescence; triplicate; read-out: Inhibitory concentrations IC50 for inhibition of the Edg-2 receptor. As for the experimental part: A) Determination of Edg-2 Receptor Inhibition by Fluorescence Imaging Plate Reader (FLIPR) Measurements
human Edg-2 receptor (LPA1 receptor), sequence (Q92633 whole entry): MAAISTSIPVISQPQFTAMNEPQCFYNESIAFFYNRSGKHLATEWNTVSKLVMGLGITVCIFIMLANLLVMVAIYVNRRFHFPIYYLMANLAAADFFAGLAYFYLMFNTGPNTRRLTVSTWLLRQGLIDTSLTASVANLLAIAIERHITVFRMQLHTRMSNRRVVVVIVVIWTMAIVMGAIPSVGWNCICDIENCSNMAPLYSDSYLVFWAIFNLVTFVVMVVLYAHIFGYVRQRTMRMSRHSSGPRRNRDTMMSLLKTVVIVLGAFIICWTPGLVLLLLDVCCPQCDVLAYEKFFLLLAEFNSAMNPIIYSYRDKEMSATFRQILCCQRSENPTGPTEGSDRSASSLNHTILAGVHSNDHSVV
The inhibition of the Edg-2 receptor (LPA1 receptor) by the compounds of the invention was quantified by the inhibitory effect on the LPA-mediated calcium liberation in a cell-based calcium fluorescence assay by use of Chinese hamster ovarian (CHO) cells in which the human Edg-2 receptor was stably overexpressed (FIp-In system, Invitrogen). […] Changes in intracellular calcium were determined by fluorescence measurement with the calcium-sensitive dye fluo-4 (Invitrogen) in a fluorescence imaging plate reader (FLIPR, […]).
CHO cells stably overexpressing the human Edg-2 receptor were seeded (40.000 per well) in black clear-bottomed poly-D-lysine-coated 96 well plates (Becton Dickinson, Biocoat cellware) approximately 18-24 h prior to the experiments. Cells were grown in an incubator at 37° C., 5% carbon dioxide and 95% humidity in cell culture media based on F-12 glutamax media (Gibco, #31765) supplemented with 1% (vol/vol) penicilline/streptomycine (PAN, #P06-07100), 10% (vol/vol) fetal calf serum (FCS, PAA, #A15-151) and hygromycin B (Invitrogen, #10687-010) 300 mg/l (final concentrations).
Prior to the FLIPR experiment, cells were loaded with fluo-4 acetoxymethyl ester (fluo-4 AM, Invitrogen, #F14202) for 60 min in an incubator at 37° C., 5% carbon dioxide and 95% humidity in dye-loading buffer consisting of Hanks' Balanced Salt Solution (HBSS, Invitrogen, #14065049) supplemented with fluo-4 AM at 2 μM (all data given for final concentration), Pluronic® F-127 0.05% (vol/vol) (Invitrogen, #P-3000 MP), HEPES 20 mM (Gibco, #15630), probenecid 2.5 mM (Sigma, #P-8761) and bovine serum albumin 0.05% (BSA, Sigma, #A-6003), adjusted to pH 7.5 with sodium hydroxide. During cell loading, fluo-4 AM is cleaved by intracellular esterase resulting in trapping of the dye fluo-4 within the cells. Loading was terminated by washing of the cells in a cell washer (Tecan Power washer) three times with the buffer specified afore but without fluo-4 AM and BSA. This latter buffer was also used as the buffer in the subsequent cell fluorescence measurements.
The dye-loaded and washed cells were pre-incubated for approximately 5 min with various concentrations of the test compound added as a solution in DMSO (0.3% vol/vol maximum final concentration of DMSO), or with DMSO in the respective concentration only (positive control). Subsequent addition of LPA (18:1, 1-oleoyl-sn-glycerol 3-phosphate; 100 nM final concentration) leads to liberation of intracellular calcium from internal stores resulting in a large transient increase of the fluo-4 fluorescence signal which was monitored over approximately 3 min. The percent inhibition caused by the test compound was determined from the maximum fluorescence response after LPA addition to cells pre-incubated with the compound as compared to the maximum fluorescence response after LPA addition to cells pre-incubated with DMSO only. All fluorescence values were corrected for the baseline fluorescence values obtained with cells which were pre-incubated with DMSO only and were not treated with LPA (baseline control). All measurements were performed in triplicate. From the percent inhibitions the inhibitory concentration IC50 was determined.
In the case of `COc1cc([N+](=O)[O-])c(C(=O)NC2(C(=O)O)Cc3ccccc3C2)cc1OCCc1cccc(Cl)c1` [Example 103, 2-{5-[2-(3-Chloro-phenyl)-ethoxy]-4-methoxy-2-nitro-benzoylamino}-indane-2-carboxylic acid], the IC50 was 1000 to 30000 nM.

Take `COc1cc(Br)c(C(=O)NC2(C(=O)O)Cc3ccccc3C2)cc1OCCc1cccc(Cl)c1` [Example 104, 2-{2-Bromo-5-[2-(3-chloro-phenyl)-ethoxy]-4-methoxy-benzoylamino}-indane-2-carboxylic acid]: the IC50 was 1000 to 30000 nM.

In the case of `COc1cc(Cl)c(C(=O)NC2(C(=O)O)Cc3ccccc3C2)cc1OCCc1cccc(Cl)c1` [Example 105, 2-{2-Chloro-5-[2-(3-chloro-phenyl)-ethoxy]-4-methoxy-benzoylamino}-indane-2-carboxylic acid], the IC50 was in the range of 100 to 1000 nM.

Take `COc1c(F)cc(C(=O)NC2(C(=O)O)Cc3ccccc3C2)cc1OCCc1cccc(C)c1` [Example 106, 2-[3-Fluoro-4-methoxy-5-(2-m-tolyl-ethoxy)-benzoylamino]-indane-2-carboxylic acid]: the IC50 was less than 100 nM.

Consider `COc1c(OCCc2cccc(C)c2)cc(C(=O)NC2(C(=O)O)Cc3ccccc3C2)cc1[N+](=O)[O-]` [Example 107, 2-[4-Methoxy-3-nitro-5-(2-m-tolyl-ethoxy)-benzoylamino]-indane-2-carboxylic acid], for which the IC50 fell in the range of 1000 to 30000 nM.

In the case of `COc1ccc(C(=O)N(C)C2(C(=O)O)Cc3ccccc3C2)cc1OCCc1cccc(C)c1` [Example 108, 2-{[4-Methoxy-3-(2-m-tolyl-ethoxy)-benzoyl]-methyl-amino}-indane-2-carboxylic acid], the IC50 lay within 100 to 1000 nM.

For the molecule `COc1ccc(C(=O)NC2(C(=O)O)Cc3ccccc3C2)cc1OS(=O)(=O)c1ccccc1` [Example 109, 2-(3-Benzenesulfonyloxy-4-methoxy-benzoylamino)-indane-2-carboxylic acid], the IC50 was in the range of 1000 to 30000 nM.

As for `COc1ccc(C(=O)NC2(C(=O)O)Cc3ccccc3C2)cc1OS(=O)(=O)c1ccc(C)cc1` [Example 110], the IC50 was in the range of 1000 to 30000 nM.

Take `COc1ccc(C(=O)NC2(C(=O)O)Cc3ccccc3C2)cc1OS(=O)(=O)c1cccc(C)c1` [Example 111, 2-[3-(toluene-3-sulfonyloxy)-4-methoxy-benzoylamino]-indane-2-carboxylic acid]: the IC50 fell in the range of 1000 to 30000 nM.

Turning to `COc1ccc(C(=O)NC2(C(=O)O)Cc3ccccc3C2)cc1OS(=O)(=O)c1ccccc1C` [Example 112], the IC50 lay in the range of 1000 to 30000 nM.

Regarding `COc1ccc(C(=O)NC2(C(=O)O)Cc3ccccc3C2)cc1C(=O)COc1cccc(C)c1` [Example 113, 2-[4-Methoxy-3-(2-m-tolyloxy-acetyl)-benzoylamino]-indane-2-carboxylic acid], the IC50 fell in the range of 1000 to 30000 nM.

For the molecule `COc1ccc(C(=O)NC2(C(=O)O)Cc3ccccc3C2)cc1C(O)COc1cccc(C)c1` (stereo not shown) [Example 114, 2-[3-(1-Hydroxy-2-m-tolyloxy-ethyl)-4-methoxy-benzoylamino]-indane-2-carboxylic acid], the IC50 was in the range of 1000 to 30000 nM.

Consider `COc1ccc(C(=O)NC2(C(=O)O)Cc3ccccc3C2)cc1CCOc1cccc(C)c1` [Example 115, 2-[4-Methoxy-3-(2-m-tolyloxy-ethyl)-benzoylamino]-indane-2-carboxylic acid], for which the IC50 lay within 1000 to 30000 nM.

Consider `COc1ccc(C(=O)NC2(C(=O)O)Cc3ccccc3C2)cc1CCCc1cccc(C)c1` [Example 116, 2-[4-Methoxy-3-(3-m-tolyl-propyl)-benzoylamino]-indane-2-carboxylic acid], for which the IC50 is less than 100 nM.

Consider `COc1ccc(C(=O)NC2(C(=O)O)Cc3ccccc3C2)cc1NC(=O)Cc1ccccc1` [Example 117, 2-(4-Methoxy-3-phenylacetylamino-benzoylamino)-indane-2-carboxylic acid], for which the IC50 fell in the range of 100 to 1000 nM.

On to `COc1ccc(C(=O)NC2(C(=O)O)Cc3ccccc3C2)cc1NC(=O)Cc1cccc(Br)c1` [Example 118], for which the IC50 fell in the range of 1000 to 30000 nM.

Consider `COc1ccc(C(=O)NC2(C(=O)O)Cc3ccccc3C2)cc1NC(=O)Cc1cccc(Cl)c1` [Example 119], for which the IC50 was 1000 to 30000 nM.

For the molecule `COc1ccc(C(=O)NC2(C(=O)O)Cc3ccccc3C2)cc1NC(=O)c1cccc(F)c1` [Example 120, 2-[3-[3-fluoro-benzoylamino)-4-methoxy-benzoylamino)-indane-2-carboxylic acid], the IC50 is 1000 to 30000 nM.

Turning to `COc1ccc(C(=O)NC2(C(=O)O)Cc3ccccc3C2)cc1NCc1ccc(F)cc1` [Example 121, 2-[3-(4-Fluoro-benzylamino)-4-methoxy-benzoylamino]-indane-2-carboxylic acid], the IC50 is 1000 to 30000 nM.

For the molecule `COc1ccc(C(=O)NC2(C(=O)O)Cc3ccccc3C2)cc1NCCc1ccccc1` [Example 122, 2-[3-[2-phenyl-ethylamino)-4-methoxy-benzoylamino)-indane-2-carboxylic acid], the IC50 was in the range of 100 to 1000 nM.

With `COc1ccc(C(=O)NC2(C(=O)O)Cc3ccccc3C2)cc1NCc1cccc(Cl)c1` [Example 123], the IC50 lay within 1000 to 30000 nM.

As for `COc1ccc(C(=O)NC2(C(=O)O)Cc3ccccc3C2)cc1NCC(C)c1ccccc1` (stereo not shown) [Example 124], the IC50 lay within 100 to 1000 nM.

As to `COc1ccc(C(=O)NC2(C(=O)O)Cc3ccccc3C2)cc1OCc1cccc(C)c1` [Example 126], the IC50 is 1000 to 30000 nM.

As to `COc1ccc(C(=O)NC2(C(=O)O)Cc3ccccc3C2)cc1OCCc1cccc(C(F)(F)F)c1` [Example 127, 2-{4-methoxy-3-[2-(3-trifluoromethyl-phenyl)-ethoxy]-benzoylamino}-indane-2-carboxylic acid], the IC50 was less than 100 nM.

Turning to `O=C(NC1(C(=O)O)Cc2ccccc2C1)c1ccc(Cl)c(OCCc2cccc(C(F)(F)F)c2)c1` [Example 128], the IC50 was 100 to 1000 nM.

`Cc1cccc(CCOc2cc(C(=O)NC3(C(=O)O)Cc4ccccc4C3)ccc2C)c1` [Example 129]: the IC50 lay within 100 to 1000 nM.

`COc1ccc(C(=O)NC2(C(=O)O)Cc3ccccc3C2)cc1OCCc1ccccc1` [Example 130]: the IC50 is less than 100 nM.

On to `COc1ccc(C(=O)NC2(C(=O)O)Cc3ccccc3C2)cc1OCCc1cccc(F)c1` [Example 131], for which the IC50 was less than 100 nM.

Consider `COc1ccc(C(=O)NC2(C(=O)O)Cc3ccccc3C2)cc1OCCc1cccc(Cl)c1` [Example 132], for which the IC50 was less than 100 nM.

Regarding `COc1cccc(CCOc2cc(C(=O)NC3(C(=O)O)Cc4ccccc4C3)ccc2OC)c1` [Example 133], the IC50 lay in the range of 100 to 1000 nM.

Take `COc1ccc(C(=O)NC2(C(=O)O)Cc3ccccc3C2)cc1OCCc1ccccc1C` [Example 134]: the IC50 was in the range of 1000 to 30000 nM.

Turning to `COc1ccc(C(=O)NC2(C(=O)O)Cc3ccccc3C2)cc1OCCc1ccc(C)cc1` [Example 135], the IC50 was 1000 to 30000 nM.

Consider `COc1ccc(C(=O)NC2(C(=O)O)Cc3ccccc3C2)cc1OCCc1ccc(F)cc1` [Example 136], for which the IC50 was in the range of 1000 to 30000 nM.

As for `COc1ccc(CCOc2cc(C(=O)NC3(C(=O)O)Cc4ccccc4C3)ccc2OC)cc1` [Example 137], the IC50 lay in the range of 1000 to 30000 nM.

Turning to `COc1ccccc1CCOc1cc(C(=O)NC2(C(=O)O)Cc3ccccc3C2)ccc1OC` [Example 138], the IC50 is 1000 to 30000 nM.

Regarding `COc1ccc(C(=O)NC2(C(=O)O)Cc3ccccc3C2)cc1OCCc1ccccc1F` [Example 139], the IC50 was in the range of 100 to 1000 nM.

Regarding `COc1ccc(C(=O)NC2(C(=O)O)Cc3ccccc3C2)cc1OCCc1cc(C)ccc1C` [Example 140], the IC50 was in the range of 1000 to 30000 nM.
